Measurements taken from paper PMC10418759, “New Highly Selective BACE1 Inhibitors and Their Effects on Dendritic Spine Density In Vivo” (International Journal of Molecular Sciences, 2023).

Legend:
[1] = molecular target: T1, recombinant human BACE1 (Homo sapiens, UniProt P56817); assay: BACE1 biochemical enzymatic assay (HTRF, APP-derived Swedish-mutation peptide substrate); conditions: HTRF, 2 h at 25 °C, APP-derived peptide substrate
T1 construct: purchased R&D Systems
Experimental: (§1) BACE1 enzymatic activity was determined in a homogeneous time-resolved fluorescence (HTRF) assay, and BACE2 enzymatic activity was determined in an enzyme-linked immunosorbent assay (ELISA)-based assay using an APP-derived peptide that contains the K670N + M671L (Swedish) double mutation of the APP β secretase cleavage site as a substrate. The recombinant human BACE1 (R&D Systems, MN, USA) was incubated (2 h at 25 °C) with the substrate and the inhibitor (9 or 10 concentrations at 1/5 steps from 10 μM). Fluorescence intensity was measured (excitation wavelength: 320 nm, measuring wavelength: 620 nm and 665 nm) using RUBYstar (BMG LABTECH, Ortenberg, Germany). […] The inhibitory potential of the compounds on the enzymatic activity of BACE1 and BACE2 was determined by performing concentration–response curves.

[2] = tested on: recombinant human BACE1; assay: as above; conditions: selectivity for BACE1 over BACE2 from IC50 values
Experimental: as §1

[3] = tested on: dendritic spines of layer V pyramidal neurons, somatosensory cortex; assay: Longitudinal in vivo two-photon dendritic spine imaging in GFP-M mice; parameters: species or system mouse; conditions: inhibitor food pellets for 21 days, compared to vehicle
[4] = molecular target: T2, recombinant human BACE2 ectodomain (Homo sapiens, UniProt Q9Y5Z0); assay: BACE2 biochemical enzymatic assay (ELISA-based, APP-derived Swedish-mutation peptide substrate); conditions: 1 h at 37 °C
T2 sequence (Q9Y5Z0 63-473 limits assumed): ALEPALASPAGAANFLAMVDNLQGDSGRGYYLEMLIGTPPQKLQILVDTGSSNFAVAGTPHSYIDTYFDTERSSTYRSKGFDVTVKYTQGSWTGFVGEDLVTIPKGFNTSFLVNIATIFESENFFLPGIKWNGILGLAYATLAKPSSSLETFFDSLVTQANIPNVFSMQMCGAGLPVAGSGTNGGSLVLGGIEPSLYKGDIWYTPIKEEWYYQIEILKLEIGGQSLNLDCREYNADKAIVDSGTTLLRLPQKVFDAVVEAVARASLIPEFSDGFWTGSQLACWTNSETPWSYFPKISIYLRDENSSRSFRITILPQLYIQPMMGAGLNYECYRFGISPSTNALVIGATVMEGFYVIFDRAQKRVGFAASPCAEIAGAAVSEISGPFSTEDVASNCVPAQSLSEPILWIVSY
Experimental: BACE1 enzymatic activity was determined in a homogeneous time-resolved fluorescence (HTRF) assay, and BACE2 enzymatic activity was determined in an enzyme-linked immunosorbent assay (ELISA)-based assay using an APP-derived peptide that contains the K670N + M671L (Swedish) double mutation of the APP β secretase cleavage site as a substrate. The recombinant human BACE1 (R&D Systems, MN, USA) was incubated (2 h at 25 °C) with the substrate and the inhibitor (9 or 10 concentrations at 1/5 steps from 10 μM). Fluorescence intensity was measured (excitation wavelength: 320 nm, measuring wavelength: 620 nm and 665 nm) using RUBYstar (BMG LABTECH, Ortenberg, Germany). The recombinant human BACE2 ectodomain was incubated (1 h at 37 °C) with the substrate and the inhibitor (10 concentrations at 1/4 steps from 25 μM). The count of chemi-luminescence in each well was measured using ARVOTM MX 1420 Multilabel Counter (PerkinElmer, Shelton, CT, USA). The inhibitory potential of the compounds on the enzymatic activity of BACE1 and BACE2 was determined by performing concentration–response curves.

[5] = tested on: brain Aβ40; assay: Brain Aβ levels in mice fed inhibitor pellets (Aβ40 ELISA, soluble brain fraction); assay type: in vivo, mouse; conditions: C57BL/6 mice, food pellets with inhibitor for one week, level reduced to % of vehicle
From the text: C57BL/6 mice (CLEA Japan Inc., Tokyo, Japan) were fed with food pellets containing 0.02% elenbecestat, 0.0125% Shionogi compound 1, and 0.025% Shionogi compound 2 for one week (performed at AAALAC compatible facilities). Mouse cerebral hemispheres were removed and frozen immediately with liquid nitrogen. The frozen cerebral hemispheres were transferred to a homogenized tube containing ceramic beads in an 8-fold volume of the weight of an extraction buffer (containing 0.4% DEA (diethylamine), 50 mmol/L NaCl, completed with protease inhibitor (Roche, Basel, Switzerland)) and incubated on ice for 20 min. Thereafter, the hemispheres were homogenized using MP BIO FastPrep-24 (MP-Biomedicals, Irvine, CA, USA) with Lysing matrix D 1.4 mm ceramic beads (20 s at 6 m/s). After spinning for 1 min, the supernatant was transferred to a centrifugation tube and centrifuged at 221,000× g, 4 °C, for 50 min. After centrifugation, the supernatant was used for measuring the brain Aβ40. The brain Aβ40 was measured using Human/Rat Amyloid beta 40 ELISA Kit (FUJIFILM Wako Pure Chemical Corporation, Osaka, Japan). The assay procedure was conducted according to instructions.

[6] = tested on: soluble Seizure protein 6 (sSez6); assay: Soluble Sez6 levels in the mouse brain (Western blot); assay type: in vivo; conditions: C57BL/6 mice, food pellets with inhibitor for one week, soluble brain fraction; level reduced to % of vehicle
From the text: C57BL/6 mice (CLEA Japan Inc., Tokyo, Japan) were fed with food pellets containing 0.02% elenbecestat, 0.0125% Shionogi compound 1, and 0.025% Shionogi compound 2 for one week (performed at AAALAC compatible facilities). Mouse cerebral hemispheres were removed and frozen immediately with liquid nitrogen. The frozen cerebral hemispheres were transferred to a homogenized tube containing ceramic beads in an 8-fold volume of the weight of an extraction buffer (containing 0.4% DEA (diethylamine), 50 mmol/L NaCl, completed with protease inhibitor (Roche, Basel, Switzerland)) and incubated on ice for 20 min. […] The brain Aβ40 was measured using Human/Rat Amyloid beta 40 ELISA Kit (FUJIFILM Wako Pure Chemical Corporation, Osaka, Japan). […]
The brain samples were heated at 95 °C in 1% SDS sample buffer with 100 mM DTT for 5 min, separated by SDS-PAGE on 4–20% precast polyacrylamide gels (Biorad, Feldkirchen, Germany), and transferred to PVDF membranes (Biorad, Feldkirchen, Germany). […] After final washes with PBST, the membranes were incubated with ECL prime for a few minutes, and signal was detected with LAS-3000 (FUJIFILM Wako Pure Chemical Corporation, Osaka, Japan). Densitometry quantification of Western blot signal was conducted using Multi Gauge V3.1 software (FUJIFILM Wako Pure Chemical Corporation, Osaka, Japan).

[7] = tested on: cognition; conditions: in vivo; cited from earlier work
[8] = tested on: dendritic spines of layer V pyramidal neurons, somatosensory cortex; conditions: mouse, in vivo; cited from earlier work

T1 sequence (P56817 46-501): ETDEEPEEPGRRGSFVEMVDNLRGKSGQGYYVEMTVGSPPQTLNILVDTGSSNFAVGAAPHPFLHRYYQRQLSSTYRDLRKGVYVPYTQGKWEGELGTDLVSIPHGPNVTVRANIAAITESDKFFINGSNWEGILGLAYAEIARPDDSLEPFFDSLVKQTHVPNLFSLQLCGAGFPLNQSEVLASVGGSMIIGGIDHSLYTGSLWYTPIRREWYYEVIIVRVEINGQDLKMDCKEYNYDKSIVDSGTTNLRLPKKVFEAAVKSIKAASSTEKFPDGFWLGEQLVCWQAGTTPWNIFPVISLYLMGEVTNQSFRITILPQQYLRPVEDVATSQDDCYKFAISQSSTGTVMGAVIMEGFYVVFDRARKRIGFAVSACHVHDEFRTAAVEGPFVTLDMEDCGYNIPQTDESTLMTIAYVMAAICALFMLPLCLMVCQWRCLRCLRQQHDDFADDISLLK

SMILES	IC50 [1] [nM]	BACE1/BACE2 (fold) [2] [fold]	Dendritic spine density [3]	IC50 [4] [nM]	Brain Aβ level compared to vehicle [5] [%]	Brain sSez6 level compared to vehicle [6] [%]	Cognitive worsening in the clinic [7]	Dendritic spine plasticity in the cerebral cortex [8]
C[C@H]1OC[C@]2(c3cc(NC(=O)c4cnc(C(F)F)cn4)ccc3F)N=C(N)SC[C@H]12 [Elenbecestat, elenbecestat]	3.9	12	do not alter dendritic spine density	46	46	27	did not show cognitive worsening	–
CN1C(=N)N[C@](C)(c2cc(NC(=O)c3ccc(F)cn3)ccc2F)CS1(=O)=O [verubecesat, verubecestat]	–	–	–	–	–	–	–	significant decrease in dendritic spine plasticity
